pIC50: −log10 of the molar value.
What was measured:
SU-DHL-4 cell lines = assay: Proliferation inhibition test, GCB-DLBCL cell line SU-DHL-4 (negative control line); format: cell-based; conditions: Homo sapiens; SU-DHL-4 (GCB-DLBCL, NF-κB pathway-independent, negative control); 96 hours; Cell Counting Kit-8; read-out: Proliferation inhibitory activity against SU-DHL-4 IC50
Procedure: (§1) In ABC-DLBCL cell lines, the NF-κB pathway is constitutively activated due to mutations in the B-cell receptor pathway. To evaluate the proliferation inhibitory activity associated with the MALT1 inhibitory activity of the test substance, a proliferation inhibition test was conducted using ABC-DLBCL cell lines.
(§2) The test substance was prepared at a concentration of 10 mM in dimethyl sulfoxide (DMSO) and further diluted with DMSO to each of concentrations of 3,000, 1,000, 300, 100, 30, and 10 µM. The solutions were further diluted 100-fold with IMDM medium containing 10% FBS to prepare test substance solutions.
(§3) OCI-Ly3 cell lines (ABC-DLBCL, NF-κB pathway-dependent) were cultured in IMDM containing 10% FBS, and SU-DHL-4 cell lines (GCB-DLBCL, NF-κB pathway-independent, used as a negative control) were cultured in RPMI-1640 containing 10% FBS. Into a 96-well plate, 2,000 cells of the OCI-Ly3 cell line and 4,000 cells of the SU-DHL-4 cell line were seeded in 100 µL per well, and 11 µL of the adjusted test substance solution was added thereto (final concentrations: 10,000, 3,000, 1,000, 300, 100, 30, and 10 nM). After 96 hours of incubation at 37°C in a 5% CO2 incubator, 10 µL of Cell Counting Kit-8 (Dojindo Laboratories) was added to each well. After 4 hours of incubation at 37°C, absorbance at 450 nm was detected using a microplate reader (EnVision, PerkinElmer).
(§4) Using the measurement data, non-linear regression analysis based on a 2-parameter logistic model was performed with Spotfire (PerkinElmer) to estimate IC50 values.

OCI-Ly3 cell lines = assay: Proliferation inhibition test, ABC-DLBCL cell line OCI-Ly3; format: cell-based; conditions: Homo sapiens; OCI-Ly3 (ABC-DLBCL, NF-κB pathway-dependent); 96 hours; Cell Counting Kit-8; read-out: Proliferation inhibitory activity against OCI-Ly3 IC50
Procedure: as §1, §2, §3, §4

[1] = target: T1, C-terminal catalytic domain of MALT1 (amino acid residues 329-824) (Homo sapiens, UniProt Q9UDY8); assay: MALT1 protease inhibitory activity (enzyme activity inhibition assay, fluorogenic substrate); format: biochemical; conditions: substrate Ac-Leu-Arg-Ser-Arg-AMC 50 µM; 30°C for 2 hours; fluorescence
T1 construct: C-terminal catalytic domain of MALT1 (amino acid residues 329-824)
T1 sequence (Q9UDY8 329-824): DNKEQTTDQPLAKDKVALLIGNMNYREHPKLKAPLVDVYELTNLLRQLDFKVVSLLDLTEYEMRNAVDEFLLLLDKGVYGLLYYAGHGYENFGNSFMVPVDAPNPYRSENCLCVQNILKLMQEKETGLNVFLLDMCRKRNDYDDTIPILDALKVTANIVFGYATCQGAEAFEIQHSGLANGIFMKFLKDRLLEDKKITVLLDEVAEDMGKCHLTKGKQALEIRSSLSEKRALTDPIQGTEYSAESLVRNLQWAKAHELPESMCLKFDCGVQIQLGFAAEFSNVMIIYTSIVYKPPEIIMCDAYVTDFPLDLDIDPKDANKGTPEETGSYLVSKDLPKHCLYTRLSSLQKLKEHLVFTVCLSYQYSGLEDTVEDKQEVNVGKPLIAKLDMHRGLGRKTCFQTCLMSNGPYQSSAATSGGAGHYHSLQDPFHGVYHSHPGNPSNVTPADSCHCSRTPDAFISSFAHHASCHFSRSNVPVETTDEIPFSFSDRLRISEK
Procedure: To evaluate the enzyme inhibitory activity of a test substance against MALT1, an enzyme activity inhibition assay was conducted using the C-terminal catalytic domain of MALT1 (amino acid residues 329-824).
A test substance was prepared at a concentration of 10 mM in dimethyl sulfoxide (DMSO) and further diluted with DMSO to obtain final concentrations of 1000, 100, 10, 1, and 0.1 µM. The solutions were further diluted 25-fold with an assay buffer to prepare final test substance solutions. The composition of the assay buffer was 200 mM Tris/HCl HEPES (pH 7.5), 0.8 M Na citrate, 100 µM DTT, and 0.05% CHAPS.
The test substance solution was added to a 384-well black plate (#6007270, PerkinElmer) in an amount of 5 µL per well (n = 2; final concentrations of 10000, 1000, 100, 10, 1, and 0.1 nM), followed by the addition of 10 µL of MALT1 enzyme and finally 5 µL of a substrate solution (Ac-Leu-Arg-Ser-Arg-AMC, Peptide Institute, Inc.; final concentration in the reaction mixture: 50 µM), and after stirring, the mixture was allowed to react at 30°C for 2 hours. Fluorescence (excitation: 380 nm, emission: 460 nm) was detected using a microplate reader (EnVision, PerkinElmer).
Using the measurement data, non-linear regression analysis based on a 2-parameter logistic model was performed with Spotfire (PerkinElmer) to calculate IC50.

[2] = tested on: HEK293/API2-MALT1/NF-κB reporter cells; assay: Inhibition of reporter activity in HEK293/API2-MALT1/NF-κB reporter cells; format: cell-based; conditions: Homo sapiens, 24 hours with test substance, One-glo luminescence
Procedure: The API2-MALT1 fusion protein, expressed in MALT lymphoma, is known to constitutively activate the NF-κB pathway. To evaluate the inhibitory effect of the test substance on the NF-κB pathway in cells, a reporter activity inhibition test was conducted using HEK293/API2-MALT1/NF-κB reporter cells.
The test substance was prepared at a concentration of 10 mM in dimethyl sulfoxide (DMSO) and further diluted with DMSO to each of concentrations of 1000, 300, 100, and 10 µM. The solutions were further diluted 100-fold with DMEM medium containing 10% FBS to prepare test substance solutions.
HEK293/API2-MALT1/NF-κB reporter cells and 293T/CMV reporter cells (used as a negative control) were cultured in DMEM medium containing 10% FBS. Into a 384-well plate (#781080, Greiner), 6,000 cells were seeded in 30 µL per well, and after culturing for 24 hours, 3.3 µL of the adjusted test substance solution was added thereto (final concentrations: 10,000, 1,000, 100, and 10 nM). After culturing for 24 hours at 37°C in a 5% CO2 incubator, 33 µL of One-glo (Promega) was added to each well. After a 5-minute incubation at room temperature, luminescence was detected using a microplate reader (EnVision, PerkinElmer).
Using the measurement data, non-linear regression analysis was performed with the SAS system (SAS Institute Inc.) to estimate IC50.

SMILES | pIC50 (SU-DHL-4 cell lines) | pIC50 (OCI-Ly3 cell lines) | pIC50 [1] | pIC50 [2]
C[C@@H]1CC(C(=O)c2cn(CCO)c3nc(-n4nccn4)c(Cl)cc23)C[C@@H](C)N1c1ncc(F)cc1I (stereo partly drawn) [Example 4, [5-chloro-1-(2-hydroxyethyl)-6-(2H-1,2,3-triazol-2-yl)-1H-pyrrolo[2,3-b]pyridin-3-yl][(2R,6R)-1-(5-fluoro-3-iodopyridin-2-yl)-2,6-dimethylpiperidin-4-yl]methanone] | 5.14 | 6.35 |  | 6.64
CCn1cc(C(=O)c2cnn(-c3cncc4c(F)cccc34)c2C(F)(F)F)c2cc(Cl)c(-c3ncccn3)nc21 [Example 13, [5-chloro-1-ethyl-6-(pyrimidin-2-yl)-1H-pyrrolo[2,3-b]pyridin-3-yl][1-(8-fluoroisoquinolin-4-yl)-5-(trifluoromethyl)-1H-pyrazol-4-yl]methanone] | 5.70 | 6.96 | 7.82 | 7.21
C[C@@H]1CC(C(=O)c2cn(CCCO)c3nc(-n4nccn4)c(Cl)cc23)C[C@@H](C)N1c1ncc(F)cc1I (stereo partly drawn) [Example 15, [5-chloro-1-(3-hydroxypropyl)-6-(2H-1,2,3-triazol-2-yl)-1H-pyrrolo[2,3-b]pyridin-3-yl][(2R,6R)-1-(5-fluoro-3-iodopyridin-2-yl)-2,6-dimethylpiperidin-4-yl]methanone] | 5.08 | 6.14 |  | 6.77
C[C@@H]1CC(C(=O)c2cn(C3CCS(=O)(=O)CC3)c3nc(-n4nccn4)c(Cl)cc23)C[C@@H](C)N1c1ncc(F)cc1I (stereo partly drawn) [Example 19, [5-chloro-1-(1,1-dioxotetrahydro-2H-thiopyran-4-yl)-6-(2H-1,2,3-triazol-2-yl)-1H-pyrrolo[2,3-b]pyridin-3-yl][(2R,6R)-1-(5-fluoro-3-iodopyridin-2-yl)-2,6-dimethylpiperidin-4-yl]methanone] | 5.60 | 6.62 | 7.04 | 6.89
C[C@@H]1CC(C(=O)c2cn(C3CCOCC3)c3nc(-n4nccn4)c(Cl)cc23)C[C@@H](C)N1c1ncc(F)cc1I (stereo partly drawn) [Example 20, [5-chloro-1-(oxan-4-yl)-6-(2H-1,2,3-triazol-2-yl)-1H-pyrrolo[2,3-b]pyridin-3-yl][(2R,6R)-1-(5-fluoro-3-iodopyridin-2-yl)-2,6-dimethylpiperidin-4-yl]methanone] | 5.19 | 6.32 | 6.96 | 6.62
C[C@@H]1CC(C(=O)c2cn([C@H]3CCOC3)c3nc(-n4nccn4)c(Cl)cc23)C[C@@H](C)N1c1ncc(F)cc1I (stereo partly drawn) [Example 21, {5-chloro-1-[(3S)-oxolan-3-yl]-6-(2H-1,2,3-triazol-2-yl)-1H-pyrrolo[2,3-b]pyridin-3-yl}[(2R,6R)-1-(5-fluoro-3-iodopyridin-2-yl)-2,6-dimethylpiperidin-4-yl]methanone] | 5.05 | 6.27 | 7.36 | 6.51
C[C@@H]1CC(C(=O)c2cn([C@@H]3CCOC3)c3nc(-n4nccn4)c(Cl)cc23)C[C@@H](C)N1c1ncc(F)cc1I (stereo partly drawn) [Example 22, {5-chloro-1-[(3R)-oxolan-3-yl]-6-(2H-1,2,3-triazol-2-yl)-1H-pyrrolo[2,3-b]pyridin-3-yl}[(2R,6R)-1-(5-fluoro-3-iodopyridin-2-yl)-2,6-dimethylpiperidin-4-yl]methanone] | 5.05 | 6.28 | 7.15 | 6.55

Second part, led by results:

pIC50 (SU-DHL-4 cell lines) | pIC50 (OCI-Ly3 cell lines) | pIC50 [1] | SMILES | pIC50 [2]
< 5.00 | 6.10 | 8.00 | C[C@@H]1C[C@H](C(=O)c2cn(C)c3nc(-n4nccn4)c(Cl)cc23)CCN1c1ncncc1Br (racemic) [Example 33, [(2RS,4RS)-1-(5-bromopyrimidin-4-yl)-2-methylpiperidin-4-yl][5-chloro-1-methyl-6-(2H-1,2,3-triazol-2-yl)-1H-pyrrolo[2,3-b]pyridin-3-yl]methanone] | 6.19
< 5.00 | 6.28 | 7.89 | C[C@@H]1C[C@H](C(=O)c2cn(C)c3nc(-n4nccn4)c(Cl)cc23)CCN1c1ccc(F)cc1N (racemic) [Example 34, [(2RS,4RS)-1-(2-amino-4-fluorophenyl)-2-methylpiperidin-4-yl][5-chloro-1-methyl-6-(2H-1,2,3-triazol-2-yl)-1H-pyrrolo[2,3-b]pyridin-3-yl]methanone] | 6.70
5.02 | 6.20 | 7.43 | C[C@@H]1C[C@H](C(=O)c2c[nH]c3nc(C(=O)N4CCNCC4)c(Cl)cc23)CCN1c1ncc(F)cc1Cl (racemic) [Example 35, {5-chloro-3-[(2RS,4RS)-1-(3-chloro-5-fluoropyridin-2-yl)-2-methylpiperidine-4-carbonyl]-1H-pyrrolo[2,3-b]pyridin-6-yl}(piperazin-1-yl)methanone] | 6.41
5.60 | 6.39 | 7.70 | C[C@@H]1C[C@H](C(=O)c2cn(C)c3nc(S(=O)(=O)N4CCNCC4)c(Cl)cc23)CCN1c1ncc(F)cc1Cl (racemic) [Example 36, [(2RS,4RS)-1-(3-chloro-5-fluoropyridin-2-yl)-2-methylpiperidin-4-yl][5-chloro-1-methyl-6-(piperazin-1-ylsulfonyl)-1H-pyrrolo[2,3-b]pyridin-3-yl]methanone] | 6.55
5.02 | 6.06 | 7.72 | O=C(c1cnn(-c2cccc3c(F)cccc23)c1C(F)(F)F)c1c[nH]c2nc(-n3nccn3)c(Cl)cc12 [Example 23, [5-chloro-6-(2H-1,2,3-triazol-2-yl)-1H-pyrrolo[2,3-b]pyridin-3-yl][1-(5-fluoronaphthalen-1-yl)-5-(trifluoromethyl)-1H-pyrazol-4-yl]methanone] | 6.72

— patent EP4772507A1, “AZAINDOLE COMPOUND AND MEDICAL DRUG” (Nippon Shinyaku Co., Ltd., priority 2023, dated 2025)
